In PubChem BioAssay (NCI):
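1) Cells in 96-well plates. 2) Compound, 48 h, 5 concentrations. 3) Linear interpolation between surrounding doses. 4) Unreached endpoint = highest concentration. GI50 marks 50% less growth. The concentration for full growth arrest is given as TGI.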

Legend:
Assay in all cases: growth of human tumour cells (NCI), 48 h
HS 578T breast = test system: HS 578T breast
OVCAR-3 ovarian = test system: OVCAR-3 ovarian
U251 CNS = test system: U251 CNS
TK-10 renal = test system: TK-10 renal
UO-31 renal = test system: UO-31 renal
SK-MEL-5 melanoma = test system: SK-MEL-5 melanoma
SNB-75 CNS = test system: SNB-75 CNS
COLO 205 colon = test system: COLO 205 colon
SNB-19 CNS = test system: SNB-19 CNS
PC-3 prostate = test system: PC-3 prostate

CN(C)c1ccc(C(O)C2=CC(=O)c3ccccc3C2=O)cc1 (centres undefined)
GI50 (HS 578T breast): 0.509 µM | TGI (HS 578T breast): > 100 µM | GI50 (OVCAR-3 ovarian): 2.75 µM | GI50 (U251 CNS): 1.74 µM | TGI (U251 CNS): > 100 µM | GI50 (TK-10 renal): 12.1 µM | TGI (TK-10 renal): 44.3 µM | GI50 (UO-31 renal): 6.46 µM | TGI (UO-31 renal): 19.3 µM

CC(C)OP(=O)(O)c1ncc(-c2ccc(C(F)(F)F)cc2)c(NC2CCCCCC2)n1
GI50 (HS 578T breast): > 100 µM | TGI (HS 578T breast): > 100 µM | GI50 (SK-MEL-5 melanoma): 51 µM | TGI (SK-MEL-5 melanoma): > 100 µM | GI50 (OVCAR-3 ovarian): 87 µM | TGI (OVCAR-3 ovarian): > 100 µM | GI50 (U251 CNS): 77.9 µM | TGI (U251 CNS): > 100 µM | GI50 (SNB-75 CNS): > 100 µM | TGI (SNB-75 CNS): > 100 µM | GI50 (COLO 205 colon): > 100 µM | TGI (COLO 205 colon): > 100 µM | GI50 (TK-10 renal): > 100 µM | TGI (TK-10 renal): > 100 µM | GI50 (UO-31 renal): > 100 µM | TGI (UO-31 renal): > 100 µM | GI50 (SNB-19 CNS): > 100 µM | TGI (SNB-19 CNS): > 100 µM | GI50 (PC-3 prostate): 57.1 µM | TGI (PC-3 prostate): > 100 µM

CCN(c1ccccc1)[C@H]1C(=O)N(c2ccc([N+](=O)[O-])cc2)[C@H]1c1ccc(OC)cc1
TGI (SK-MEL-5 melanoma): > 100 µM | TGI (OVCAR-3 ovarian): > 100 µM | TGI (U251 CNS): > 100 µM | TGI (SNB-75 CNS): > 100 µM | TGI (COLO 205 colon): > 100 µM | TGI (TK-10 renal): > 100 µM | TGI (UO-31 renal): > 100 µM | TGI (SNB-19 CNS): > 100 µM

COCC(C(=O)OC1C/C=C/C=C/C(=O)OC(C(C)C(O)C(C)CCC(OC(=O)C(C)N(C)C)C(C)C(OC(C)=O)C(C)/C=C/N(C)C=O)C/C=C/C(OC)CC(C)C/C=C(\C)C(OC)CCC(C)C(O)C1C)N(C)C (centres undefined)
GI50 (HS 578T breast): < 0.0001 µM | TGI (HS 578T breast): < 0.0001 µM | GI50 (SK-MEL-5 melanoma): < 0.0001 µM | TGI (SK-MEL-5 melanoma): 0.00144 µM | GI50 (OVCAR-3 ovarian): < 0.0001 µM | TGI (OVCAR-3 ovarian): 0.00191 µM | GI50 (U251 CNS): < 0.0001 µM | TGI (U251 CNS): 0.154 µM | GI50 (SNB-75 CNS): < 0.0001 µM | TGI (SNB-75 CNS): 0.0231 µM | GI50 (TK-10 renal): 0.0158 µM | TGI (TK-10 renal): 0.0877 µM | GI50 (UO-31 renal): 0.00104 µM | TGI (UO-31 renal): 0.169 µM | GI50 (SNB-19 CNS): < 0.0001 µM | TGI (SNB-19 CNS): 0.111 µM | GI50 (PC-3 prostate): < 0.0001 µM | TGI (PC-3 prostate): > 1 µM

COc1ccc(C)cc1NC(=S)C#N
TGI (SK-MEL-5 melanoma): > 100 µM | TGI (OVCAR-3 ovarian): > 100 µM | TGI (U251 CNS): > 100 µM | TGI (SNB-75 CNS): > 100 µM | TGI (COLO 205 colon): > 100 µM | TGI (TK-10 renal): > 100 µM | TGI (SNB-19 CNS): > 100 µM | TGI (PC-3 prostate): > 100 µM

COc1ccc(-c2csc(Nc3cccc(-c4csc(C)n4)c3)n2)cc1
GI50 (HS 578T breast): 4.68 µM | TGI (HS 578T breast): > 37.9 µM | GI50 (SK-MEL-5 melanoma): 1.19 µM | TGI (SK-MEL-5 melanoma): 7.85 µM | GI50 (OVCAR-3 ovarian): 0.489 µM | TGI (OVCAR-3 ovarian): > 10.8 µM | GI50 (U251 CNS): 0.783 µM | TGI (U251 CNS): > 27.6 µM | GI50 (COLO 205 colon): 0.636 µM | TGI (COLO 205 colon): > 26.1 µM | GI50 (TK-10 renal): 5.04 µM | TGI (TK-10 renal): > 50 µM | GI50 (UO-31 renal): 2.54 µM | TGI (UO-31 renal): > 50 µM | GI50 (SNB-19 CNS): 1.04 µM | TGI (SNB-19 CNS): > 50 µM | GI50 (PC-3 prostate): 1.97 µM | TGI (PC-3 prostate): > 50 µM

COc1cc2c3c(n(CCCNCCCNCCCN)c(=O)c2cc1OC)-c1cc2c(cc1C3=O)OCO2
GI50 (HS 578T breast): > 100 µM | TGI (HS 578T breast): > 100 µM | GI50 (SK-MEL-5 melanoma): > 100 µM | TGI (SK-MEL-5 melanoma): > 100 µM | GI50 (OVCAR-3 ovarian): 0.879 µM | TGI (OVCAR-3 ovarian): 52.6 µM | GI50 (U251 CNS): 46.2 µM | TGI (U251 CNS): > 100 µM | GI50 (SNB-75 CNS): 12.8 µM | TGI (SNB-75 CNS): > 100 µM | GI50 (COLO 205 colon): 46.1 µM | TGI (COLO 205 colon): > 100 µM | GI50 (TK-10 renal): > 100 µM | TGI (TK-10 renal): > 100 µM | GI50 (UO-31 renal): > 100 µM | TGI (UO-31 renal): > 100 µM | GI50 (SNB-19 CNS): > 100 µM | TGI (SNB-19 CNS): > 100 µM

Cc1cc(C)nc(NS(=O)(=O)c2ccc(Nc3c4ccccc4nc4c(C(=O)NCCN(C)C)cccc34)cc2)n1
TGI (SK-MEL-5 melanoma): 18.8 µM | TGI (U251 CNS): 18.1 µM | TGI (SNB-75 CNS): 24.4 µM | TGI (TK-10 renal): 27.7 µM | TGI (UO-31 renal): 5.89 µM | TGI (SNB-19 CNS): 10.7 µM

CCCCCC[C@H]1C(=O)O[C@H](C)[C@H](NC(=O)c2cccc(NC=O)c2OC)C(=O)O[C@@H](C)[C@@H]1OC(=O)CCC (tested in a mixture with another compound)
GI50 (HS 578T breast): 13.1 µM | TGI (HS 578T breast): 38.6 µM | GI50 (SK-MEL-5 melanoma): 3.94 µM | TGI (SK-MEL-5 melanoma): 14.5 µM | GI50 (OVCAR-3 ovarian): 11.1 µM | TGI (OVCAR-3 ovarian): 24.9 µM | GI50 (U251 CNS): 8.2 µM | TGI (U251 CNS): 21.5 µM | GI50 (COLO 205 colon): 12.6 µM | TGI (COLO 205 colon): 26.7 µM | GI50 (TK-10 renal): 13.3 µM | TGI (TK-10 renal): 29.6 µM | GI50 (UO-31 renal): 13.2 µM | TGI (UO-31 renal): 29.3 µM | GI50 (PC-3 prostate): 6.23 µM | TGI (PC-3 prostate): 26.7 µM

Cc1cc(Cl)ccc1NC(=O)C1C(=O)N(c2ccc(Cl)cc2C)C(=O)/C1=N\NC(N)=S (centres undefined)
TGI (SK-MEL-5 melanoma): > 100 µM | TGI (OVCAR-3 ovarian): > 100 µM | TGI (U251 CNS): 39.6 µM | TGI (COLO 205 colon): > 100 µM | TGI (TK-10 renal): > 100 µM | TGI (UO-31 renal): 41.1 µM | TGI (SNB-19 CNS): > 100 µM

OCC(O)C(O)C(O)c1nn(-c2ccc(F)cc2)c2nc3cc(Cl)c(Cl)cc3nc12 (centres undefined)
TGI (OVCAR-3 ovarian): 49.5 µM | TGI (U251 CNS): > 100 µM | TGI (SNB-75 CNS): 13.2 µM | TGI (COLO 205 colon): > 100 µM | TGI (TK-10 renal): 59.1 µM | TGI (UO-31 renal): > 100 µM | TGI (SNB-19 CNS): 38 µM

N#Cc1cc(S(=O)(=O)Nc2nc3cc(Cl)ccc3o2)c(SCc2ccccc2)cc1Cl
GI50 (SK-MEL-5 melanoma): 15.1 µM | TGI (SK-MEL-5 melanoma): 28.3 µM | GI50 (OVCAR-3 ovarian): 13.5 µM | TGI (OVCAR-3 ovarian): 26.4 µM | GI50 (U251 CNS): 13.4 µM | TGI (U251 CNS): 26.2 µM | GI50 (COLO 205 colon): 13 µM | TGI (COLO 205 colon): 25.7 µM | GI50 (TK-10 renal): 14.8 µM | TGI (TK-10 renal): 28 µM | GI50 (UO-31 renal): 12.3 µM | TGI (UO-31 renal): 24.7 µM | GI50 (SNB-19 CNS): 13.6 µM | TGI (SNB-19 CNS): 26.5 µM | GI50 (PC-3 prostate): 15.1 µM | TGI (PC-3 prostate): 28.3 µM

Cc1cc(S(N)(=O)=O)c(S/C(=N\NS(=O)(=O)c2ccccc2)c2ccc(Cl)cc2)cc1Cl
GI50 (HS 578T breast): 39.8 µM | TGI (HS 578T breast): > 100 µM | GI50 (SK-MEL-5 melanoma): 67.9 µM | TGI (SK-MEL-5 melanoma): > 100 µM | GI50 (OVCAR-3 ovarian): 47.6 µM | TGI (OVCAR-3 ovarian): > 100 µM | GI50 (U251 CNS): > 100 µM | TGI (U251 CNS): > 100 µM | GI50 (COLO 205 colon): 97.8 µM | TGI (COLO 205 colon): > 100 µM | GI50 (TK-10 renal): > 100 µM | TGI (TK-10 renal): > 100 µM | GI50 (UO-31 renal): > 100 µM | TGI (UO-31 renal): > 100 µM | GI50 (SNB-19 CNS): > 100 µM | TGI (SNB-19 CNS): > 100 µM | GI50 (PC-3 prostate): 38.9 µM | TGI (PC-3 prostate): > 100 µM

COc1cc(N(C)C)c(OC)cc1C=C1C=CC=C1
TGI (HS 578T breast): > 100 µM | TGI (SK-MEL-5 melanoma): > 100 µM | TGI (OVCAR-3 ovarian): > 100 µM | TGI (U251 CNS): > 100 µM | TGI (TK-10 renal): > 100 µM | TGI (UO-31 renal): > 100 µM | TGI (SNB-19 CNS): > 100 µM | TGI (PC-3 prostate): > 100 µM

O=CN1N=C(c2cccc(Nc3ccnc4cc(Cl)ccc34)c2)CC1c1ccc(Cl)cc1 (centres undefined)
GI50 (HS 578T breast): 1.97 µM | TGI (HS 578T breast): > 100 µM | GI50 (SK-MEL-5 melanoma): 1.86 µM | TGI (SK-MEL-5 melanoma): 10.6 µM | GI50 (OVCAR-3 ovarian): 1.2 µM | TGI (OVCAR-3 ovarian): 7.71 µM | GI50 (U251 CNS): 1.29 µM | TGI (U251 CNS): 20.7 µM | GI50 (COLO 205 colon): 1.39 µM | TGI (COLO 205 colon): 6.67 µM | GI50 (UO-31 renal): 0.878 µM | TGI (UO-31 renal): > 100 µM | GI50 (SNB-19 CNS): 3.48 µM | TGI (SNB-19 CNS): > 100 µM

COc1cc(-c2nn(-c3cccc(NC(=O)CCNc4ccc(N5CCOCC5)cc4)c3)cc2-c2ccncc2)ccc1Cl
GI50 (HS 578T breast): 3.27 µM | TGI (HS 578T breast): > 100 µM | GI50 (SK-MEL-5 melanoma): 1.95 µM | TGI (SK-MEL-5 melanoma): 4.89 µM | GI50 (OVCAR-3 ovarian): 2.45 µM | TGI (OVCAR-3 ovarian): 8.55 µM | GI50 (U251 CNS): 2.52 µM | TGI (U251 CNS): 63 µM | GI50 (SNB-75 CNS): 4.22 µM | TGI (SNB-75 CNS): > 100 µM | GI50 (TK-10 renal): 3.13 µM | TGI (TK-10 renal): 47.9 µM | GI50 (UO-31 renal): 2.7 µM | TGI (UO-31 renal): > 100 µM | GI50 (SNB-19 CNS): 3.34 µM | TGI (SNB-19 CNS): > 100 µM | GI50 (PC-3 prostate): 2.8 µM | TGI (PC-3 prostate): 31.4 µM
